Measurements: patent US20060003030A1, “Essential oils for treating and/ or preventing allergic disease” (priority 2004, published 2006)
≈ marks a conversion by molar mass, not a printed value.

Tests used:
[1] = system: PAF-induced platelet aggregation; assay: Inhibitory activity of essential oils on PAF-induced platelet aggregation; assay type: cell-based, New Zealand rabbit; conditions: rabbit washed platelet suspension, PAF added 2 min after sample, aggregation observed 4 min
Description: The anticoagulant “acid-citrate-dextrose” (ACD) was added to the blood taken from a New Zealand rabbit in a ratio of 1:6 by volume. The resulting blood was centrifuged at 190 g for 15 min at room temperature. After centrifugation, the supernatant containing platelet-rich plasma (PRP) was taken and 0.2 M EDTA was added. The resulting supernatant was centrifuged at 1000 g for 1.5 min. After centrifugation, the pellet containing RBC and WBC was removed and then PRP was centrifuged at 1000 g for 11 min. After centrifugation, the supernatant was removed and the platelet pellet was suspended in Ca^2+--free Tyrode's buffer (containing 1 mM Ca2+). […] The turbidity was determined with a Platelet Aggregation Chromogenic Kinetic System.
0.5 ml of platelet suspension was added to silicon-coated cuvette and put in a Platelet Aggregation Chromogenic Kinetic System and bathed for 2 min at 37° C. […] The ratio of aggregation was calculated by the following formula: Ratio of aggregation %=(absorptivity before adding PAF−absorptivity after adding PAF/(absorptivity before adding PAF−absorptivity of Tyrode's buffer)×100% The ratio of inhibition was calculated by the following formula: Ratio of inhibition %=100%−(ratio of aggregation of sample/ratio of aggregation of control×100%)

[2] = system: mouse macrophage cell line RAW 264.7; assay: Inhibitory effect of essential oils on NO production by LPS-activated mouse macrophage cell line (Griess reagent); assay type: cell-based; conditions: positive control, concentration not given; LPS (Inducer) 60 ± 0.5, Blank 3.5 ± 0.3
Description: The mouse macrophage cell line RAW 264.7 was purchased from Bioresources Collection & Research Center, Taiwan and numbered CCRC 60001. The cells were added to Dulbecco's Modified Eagle Medium (DMEM, GibcoBRL) containing 10% (v/v) fetal bovine serum (FBS, GibcoBRL) and then incubated in a CO2 incubator containing 5% CO2 at 37° C. The cells grow to 90% density and are then washed with phosphate buffered saline (PBS). The cells were colleted and diluted with fresh DMEM to the appropriate concentration.
The mouse macrophage cells were transferred in a 96-well plate in a concentration of 10,000 cells/well. After incubating for 24 hours, the cells were activated with the medium containing 100 μg/ml Lipopolysaccharide (LPS, SIGMA) and 100·μg/ml Interferon-γ (INF-γ, GibcoBRL). Meanwhile, the essential oils of herbal medicine in different concentrations were added to the wells. After incubating for 24 hours, 50 μl of supernatants were respectively taken and put into a 96-well plate. […] Then, the absorbance of the resulting cell supernatants was determined with a microplate reader at a wavelength of […]. The percentage of nitric oxide can be calculated by the following formula: % nitric oxide=(sample absorptivity/control absorptivity)×100%.

Row | IC50 [1] [µg/mL] | SMILES | Nitric oxide [2] [µM]
1 | 1420 (≈ 2400 µM) | CCCCCCCCCCCCCCCCCCNC(=O)OCC(COP(=O)([O-])OCC[n+]1ccsc1)OC (centres unmarked) [CV-3988] | –
2 | – | CNC(=N)NCCC[C@H](N)C(=O)O [L-NMMA] | 25 ± 0.6
